US9518085B2, “Compounds and pharmaceutical combinations for the treatment of neurodegenerative and ischemic brain diseases” (CENTRO DE INGENIERÍA GENÉTICA Y BIOTECHNOLOGÍA, priority 2011, dated 2016)
No end group written: not given here.

Legend:
[1] = tested on: hippocampus (C2, CA3, CA4 regions) of Mongolian gerbils, I/R model; assay: Morphometric evaluation, bilateral hippocampal cell count after transient CCA occlusion; type: in vivo; settings: 750 μg/Kg ip, GHRP-6 6.25 μg/kg ip, alone or combined; 30 min, 3, 6, 12 h after ischemic event
Protocol: FIG. 8. Morphometric evaluation of the therapeutic effect with PCB-aa (peptide 3), the GHRP-6 peptide, or its combination in Mongolian gerbils submitted to transient (10 min) occlusion of CCA. A: representative images (4× magnification) of the left hippocampus of animals that underwent fake surgery (sham), or treated with saline solution, or with PCB-aa (peptide 3) and GHRP-6 (6.25 μg/kg, intraperitoneal route), or with PCB-aa (peptide 3)/GHRP-6 (maintaining the corresponding doses and administration routes) for 30 min, 3, 6 and 12 h after the ischemic event. B: bilateral cell count performed in the C2, CA3 and CA4 regions of both hippocampi for each experimental group. Different letters indicate significant differences with respect to the I/R+saline group, *p<0.05. The values presented in the graphs are means±MSE
The morphometric evaluations of the therapeutic treatment with PCB-aa (peptide 3), the GHRP-6 peptide or its combinations were tested in Mongolian gerbils submitted to transient (10 min) CCAs occlusion. Accumulative doses of PCB-aa (peptide 3) (750 μg/Kg, by intraperitoneal route), GHRP-6 (6.25 μg/kg, intraperitoneal route), or with PCB-aa (peptide 3)/GHRP-6 (maintaining the corresponding dose and administration route) for 30 min, 3, 6 and 12 h after the ischemic event were evaluated. The bilateral cell count was performed in the C2, CA3 and CA4 regions for each experimental group and it was expressed in percentage with respect to the sham (negative or fake surgery) group.

[2] = tested on: experimental autoinmune encephalomyelitis (EAE) model; assay: EAE model, prophylactic schedule, clinical index; type: in vivo, C57BL6 mice; settings: PCB-aa 3.375 mg/Kg, PCB 750 μg/Kg, alone or combined
Protocol: (§1) In the prophylactic schedule the treatment was performed 15 days before EAE induction and in the therapeutic schedule starting from the beginning of the clinical signs.

PC12 cell line = assay: Neuroprotector effect against Sodium glutamate induced damage in PC12 cells (MTT cell viability); type: cell-based; settings: for concentration needed to attain cell viability similar to C-Phyco: PC12, 24 h pretreatment, 4 h co-incubation with Sodium glutamate, MTT; for cells protected from the damage: Sodium glutamate damage, PC12
Protocol: FIG. 2. In vitro study of the neuroprotector effect of C-Phycocyanin (C-Phyco) (A) and of PCB and PCB-aa (B) against the Sodium glutamate (50 mM) induced damage in the neuronal line PC12. The symbols indicate the presence (+), absence (−) or concentrations of the respective compounds in the culture medium. Different letters indicate statistically significant difference, according to ANOVA followed by the Newman-Keuls multiple comparison test, p<0.05. The values presented in the graphs are the means±standard error of the mean (MSE).
PC12 cells (1.5×10^4 cells/well) were pretreated with C-Phyco (25, 50 μM) or PCB (0.5; 1; 5 μM) or PCB-aa (0.25; 1; 2 μM), during 24 h, and then submitted to co-incubation with […] Sodium glutamate together with the corresponding product (different doses) for 4 h.

[3] = tested on: brain I/R model in Mongolian gerbils; assay: Brain infarct volume in the bilateral ischemia-reperfusion (I/R) model, transient CCA occlusion; type: in vivo; settings: 24 h after 10 min CCA occlusion, PCB 750 μg/Kg ip, PCB-aa 3.375 mg/kg, alone or combined
Protocol: The animals were treated with saline solution or with an accumulative dose of the PCB-aa peptides (3.375 mg/kg of each one), by intraperitoneal route for 30 min, 3, 6 and 12 h after the ischemic event.
The effectiveness percentage of each treatment was calculated according to the following formula: effectiveness %=(1−Vi/VI/R)×100. Vi: infarct volume of the ischemic group treated with the corresponding product; VI/R: volume of the infarct of the ischemic group treated with saline solution.
The percentage of effectiveness was calculated as described in Example 3.
The animals were treated with a saline solution (through the intraperitoneal route) or with an accumulative dose of PCB (750 μg/Kg, by the intraperitoneal route), PCB-aa (peptide 4) 3.375 mg/kg, EPO (500 U/Kg, through the intraperitoneal route), asyaloEPO (200 U/Kg, through the nasal route) or with PCB/EPO or PCB-aa (peptide 4)/EPO, PCB/asyaloEPO and PCB-aa ([…])/asyaloEPO (maintaining the dose and the corresponding administration route) for 30 min, 3, 6 and 12 h after the ischemic event.
The evaluation of the therapeutic effect of the combinations and their independent components was carried out. The percentage of effectiveness of each treatment was calculated as described in Example 3.

EAE model = assay: EAE model, therapeutic schedule, clinical course (area under the curve); type: in vivo, C57BL6 mice; settings: PCB 750 μg/kg ip, PCB-aa 3.375 mg/kg ip daily 15 days, IFN-b 500 ng/Kg sc 6 doses, alone or combined
Protocol: The percentage of effectiveness of each treatment was calculated according to the following formula: % of effectiveness=(1−ACi/ACEAE)×100. ACi: area under the curve of the group treated with the corresponding product; ACEAE: area under the curve of the EAE group.
as §1

[4] = tested on: swollen paw models in mice and rats; settings: oral route, 100-200 mg/kg; cited from earlier work
COX-2 = biological target: T1, COX-2 (Homo sapiens, UniProt P35354); settings: isolated enzyme; complete blood assay; cited from earlier work
T1 sequence (P35354 18-604): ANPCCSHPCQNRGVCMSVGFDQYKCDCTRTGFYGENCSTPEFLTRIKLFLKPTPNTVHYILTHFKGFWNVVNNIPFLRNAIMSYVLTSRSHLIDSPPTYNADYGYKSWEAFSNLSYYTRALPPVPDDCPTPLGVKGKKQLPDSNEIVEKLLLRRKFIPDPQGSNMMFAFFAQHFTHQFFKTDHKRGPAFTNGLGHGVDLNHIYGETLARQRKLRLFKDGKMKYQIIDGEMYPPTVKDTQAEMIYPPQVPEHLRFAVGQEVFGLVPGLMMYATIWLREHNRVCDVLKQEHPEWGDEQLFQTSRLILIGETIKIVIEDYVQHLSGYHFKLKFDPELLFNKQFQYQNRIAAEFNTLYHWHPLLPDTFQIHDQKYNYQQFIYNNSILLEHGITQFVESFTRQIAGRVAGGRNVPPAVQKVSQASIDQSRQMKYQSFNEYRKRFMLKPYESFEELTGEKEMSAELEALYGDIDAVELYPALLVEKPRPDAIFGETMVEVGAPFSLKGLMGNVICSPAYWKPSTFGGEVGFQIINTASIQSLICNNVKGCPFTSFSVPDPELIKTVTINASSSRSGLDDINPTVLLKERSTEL

[5] = tested on: model of brain damage in rats induced by kainic acid; settings: one 100 mg/kg dose; cited from earlier work
[6] = tested on: culture of brain granulous cells; settings: 1-3 mg/mL, absence of potassium and serum for 24 h; cited from earlier work
[7] = IFN-a/IFN-b 500 ng/Kg sc, 30 min, 3, 6, 12 h after ischemic event
[8] = EPO 500 U/Kg ip, asyaloEPO 200 U/Kg nasal

## GHRP-6 [reference compound]
[1]
  effectiveness, bilateral hippocampal cell count: 36.1%

## ^79MAABLR^84 (MAAC(phycocyanobilin)LR; listed as Spirulina platensis) [PCB-aa (peptide 1), chromogenic peptide of β-C-Phyco]
[2]; Table 1, IFN-a 500 ng/Kg
  Clinical score (Mean ± SD): 1.23 ± 1.1
  Days of the disease: 7.2 ± 0.3 days
  Incidence (%): 75%
  Starting Day (Mean ± SD): 9.5 ± 0.2
[2]; Table 2, IFN-b 500 ng/Kg
  Clinical score (Mean ± SD): 1.23 ± 1.1
  Days of the disease: 7.2 ± 0.3 days
  Incidence (%): 70%
  Starting day (Mean ± DS): 9.5 ± 0.2
PC12 cell line
  concentration needed to attain cell viability similar to C-Phyco: even lower
[3]; [7]
  effectiveness, reduction of brain infarct volume: 49.2%

## Phycocyanobilin [PCB]
[2]; Table 1, IFN-a 500 ng/Kg
  Clinical score (Mean ± SD): 1.37 ± 1.7
  Days of the disease: 8.5 ± 0.1 days
  Incidence (%): 70%
  Starting Day (Mean ± SD): 10.5 ± 0.5
[2]; Table 2, IFN-b 500 ng/Kg
  Clinical score (Mean ± SD): 1.55 ± 0.3
  Days of the disease: 7.3 ± 0.4 days
  Incidence (%): 60%
  Starting day (Mean ± DS): 12.3 ± 0.1
EAE model
  % of effectiveness (area under the curve of clinical index): 46.1%
[1]
  effectiveness, bilateral hippocampal cell count: 35.8%
PC12 cell line; 5 μM PCB
  cells protected from the damage: 100%
PC12 cell line
  concentration needed to attain cell viability similar to C-Phyco: lower concentrations
PC12 cell line; PC12, Sodium glutamate damage
  protective molar concentration, times lower than C-Phyco: 10 times
[3]; [8]
  effectiveness, reduction of brain infarct volume: 43.1%
[3]; [7]
  effectiveness, reduction of brain infarct volume: 43.1%
[3]; IL-2 100 ng/Kg sc
  effectiveness, reduction of brain infarct volume: 43.1%

## ^80AABLR^84 (AAC(phycocyanobilin)LR; listed as Spirulina platensis) [PCB-aa (peptide 3), chromogenic peptide of β-C-Phyco]
[1]
  effectiveness, bilateral hippocampal cell count: 35.8%

## ^84BAR^86 (Cys(phycocyanobilin)-Ala-Arg; listed as Spirulina platensis) [PCB-aa (peptide 2), chromogenic peptide of α-C-Phyco]
[3]; IL-2 100 ng/Kg sc
  effectiveness, reduction of brain infarct volume: 49.2%

## C-Phycocyanin
[4]
  edema: able to reduce edemas
COX-2
  COX-2 inhibition: inhibits COX-2
PC12 cell line; 50 μM C-Phyco
  cells protected from the damage: around 75%
[5]
  signs and alterations versus untreated control group: reduced the signs
[6]
  neuron death: prevents neuron death

## ^82BLR^84 (Cys(phycocyanobilin)-Leu-Arg; listed as Spirulina platensis) [PCB-aa (peptide 4), chromogenic peptide of β-C-Phyco]
[3]; [8]
  effectiveness, reduction of brain infarct volume: 49.2%
